Source: article PMC3945162 (Psychopharmacology, 2013)
Like-named read-outs stand apart in the source and are kept apart here.

Tests used:
[1] = target: T1, hNET (Homo sapiens, UniProt P23975); assay: biochemical; type: binding
[2] = system: rats trained to discriminate LSD (0.1 mg/kg) from saline; type: in vivo, rat; conditions: LSD-trained rats, 15 min pretreatment
[3] = target: T2, hSERT (Homo sapiens, UniProt P31645); assay: [125I]RTI-55 binding, HEK-hSERT cells
[4] = target: T3, hDAT (Homo sapiens, UniProt Q01959); assay: [125I]RTI-55 binding, HEK-hDAT cells
[5] = target: T2, hSERT; assay: [3H]Serotonin release, HEK-hSERT cells; type: cell-based
[6] = target: T4, human 5-HT2A receptor (Homo sapiens, UniProt P28223); assay: IP-1 formation, HEK-5-HT2A cells; type: cell-based; conditions: for Emax: read-out: 5-HT2A Function IP-1 formation % maximal effect
[7] = system: Male Sprague-Dawley rats; assay: Adverse effects observed during drug discrimination test sessions; type: in vivo, rat
[8] = system: rats trained to discriminate DMT (5 mg/kg) from saline; type: in vivo, rat; conditions: DMT-trained rats; 15 min pretreatment
[9] = target: T4, human 5-HT2A receptor; assay: [125I]DOI binding, HEK-5-HT2A cells
[10] = target: T1, hNET; assay: cell-based
[11] = system: rats trained to discriminate MDMA (1.5 mg/kg) from saline; type: in vivo, rat; conditions: MDMA-trained rats, 15 min pretreatment
[12] = target: T3, hDAT; assay: [3H]Dopamine uptake, HEK-hDAT cells; type: cell-based
[13] = target: T3, hDAT; assay: [3H]Dopamine release, HEK-hDAT cells; type: cell-based; conditions: HEK-hDAT cells
[14] = target: T1, hNET; assay: cell-based; remark: listed apart in the source
[15] = system: rats trained to discriminate DOM (0.5 mg/kg) from saline; type: in vivo, rat; conditions: 15 min pretreatment
[16] = target: T4, human 5-HT2A receptor; assay: [3H]AA release from HEK-5-HT2A cells; type: cell-based; conditions: for Emax: read-out: 5-HT2A Function [3H]AA release % maximal effect
[17] = target: T5, human 5-HT1A receptor (Homo sapiens, UniProt P08908); assay: [35S]GTPγS binding functional assay, HEK-5-HT1A; type: biochemical; conditions: for Emax: read-out: 5-HT1A Function [35S]GTPγS Binding % maximal effect
T5 sequence (P08908 1-422): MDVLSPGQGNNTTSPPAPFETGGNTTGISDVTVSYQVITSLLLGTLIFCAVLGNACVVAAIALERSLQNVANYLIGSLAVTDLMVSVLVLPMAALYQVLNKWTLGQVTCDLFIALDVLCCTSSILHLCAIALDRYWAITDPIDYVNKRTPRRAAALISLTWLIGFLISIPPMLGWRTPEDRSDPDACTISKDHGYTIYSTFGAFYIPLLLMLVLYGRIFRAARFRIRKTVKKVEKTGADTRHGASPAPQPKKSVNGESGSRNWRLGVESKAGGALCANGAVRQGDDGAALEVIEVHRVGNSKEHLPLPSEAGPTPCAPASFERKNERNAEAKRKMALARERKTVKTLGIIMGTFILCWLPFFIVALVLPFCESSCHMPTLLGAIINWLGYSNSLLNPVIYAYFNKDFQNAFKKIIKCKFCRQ

[18] = target: T2, hSERT; assay: [3H]Serotonin uptake, HEK-hSERT cells; type: cell-based
[19] = system: rats trained to discriminate METH (1 mg/kg) from saline; type: in vivo, rat; conditions: METH-trained rats; 15 min pretreatment
[20] = system: Male Swiss–Webster mice; assay: Locomotor activity; type: in vivo, mouse; conditions: mice, i.p.
[21] = target: T5, human 5-HT1A receptor; assay: [3H]8-OH-DPAT binding, HEK-5-HT1A
[22] = target: T6, human 5-HT2C receptor (Homo sapiens, UniProt P28335); assay: cell-based; conditions: read-out: 5-HT2C Function IP-formation % maximal effect
T6 sequence (P28335 33-458): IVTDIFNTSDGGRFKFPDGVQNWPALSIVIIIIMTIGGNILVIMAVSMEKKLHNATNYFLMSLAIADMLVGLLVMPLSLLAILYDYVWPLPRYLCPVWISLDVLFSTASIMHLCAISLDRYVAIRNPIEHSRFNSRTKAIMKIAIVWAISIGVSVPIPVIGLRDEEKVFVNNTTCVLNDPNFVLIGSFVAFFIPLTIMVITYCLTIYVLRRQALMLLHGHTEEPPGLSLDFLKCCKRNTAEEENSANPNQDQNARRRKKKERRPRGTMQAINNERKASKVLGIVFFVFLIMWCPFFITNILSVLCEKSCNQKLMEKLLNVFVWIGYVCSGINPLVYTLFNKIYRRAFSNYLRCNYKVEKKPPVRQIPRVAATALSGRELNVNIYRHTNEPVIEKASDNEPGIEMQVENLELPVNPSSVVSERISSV

[23] = normalized to the maximal effect of serotonin

T1 sequence (P23975 whole entry): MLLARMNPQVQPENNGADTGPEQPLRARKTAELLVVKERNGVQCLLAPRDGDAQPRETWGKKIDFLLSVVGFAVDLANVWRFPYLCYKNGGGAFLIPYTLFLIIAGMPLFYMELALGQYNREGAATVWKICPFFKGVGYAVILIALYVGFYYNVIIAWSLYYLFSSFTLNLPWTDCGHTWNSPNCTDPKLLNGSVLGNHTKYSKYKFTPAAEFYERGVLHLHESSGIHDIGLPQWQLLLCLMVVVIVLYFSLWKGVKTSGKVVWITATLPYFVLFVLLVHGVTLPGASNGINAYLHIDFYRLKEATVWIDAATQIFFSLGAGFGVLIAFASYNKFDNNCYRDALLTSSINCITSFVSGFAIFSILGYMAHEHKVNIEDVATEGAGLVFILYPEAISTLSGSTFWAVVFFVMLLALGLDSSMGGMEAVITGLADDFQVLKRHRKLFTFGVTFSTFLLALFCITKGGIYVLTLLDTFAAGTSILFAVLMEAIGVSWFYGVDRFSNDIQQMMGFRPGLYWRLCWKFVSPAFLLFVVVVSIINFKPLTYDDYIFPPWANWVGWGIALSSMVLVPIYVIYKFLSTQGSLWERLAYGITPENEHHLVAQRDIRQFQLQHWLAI
T2 sequence (P31645 whole entry): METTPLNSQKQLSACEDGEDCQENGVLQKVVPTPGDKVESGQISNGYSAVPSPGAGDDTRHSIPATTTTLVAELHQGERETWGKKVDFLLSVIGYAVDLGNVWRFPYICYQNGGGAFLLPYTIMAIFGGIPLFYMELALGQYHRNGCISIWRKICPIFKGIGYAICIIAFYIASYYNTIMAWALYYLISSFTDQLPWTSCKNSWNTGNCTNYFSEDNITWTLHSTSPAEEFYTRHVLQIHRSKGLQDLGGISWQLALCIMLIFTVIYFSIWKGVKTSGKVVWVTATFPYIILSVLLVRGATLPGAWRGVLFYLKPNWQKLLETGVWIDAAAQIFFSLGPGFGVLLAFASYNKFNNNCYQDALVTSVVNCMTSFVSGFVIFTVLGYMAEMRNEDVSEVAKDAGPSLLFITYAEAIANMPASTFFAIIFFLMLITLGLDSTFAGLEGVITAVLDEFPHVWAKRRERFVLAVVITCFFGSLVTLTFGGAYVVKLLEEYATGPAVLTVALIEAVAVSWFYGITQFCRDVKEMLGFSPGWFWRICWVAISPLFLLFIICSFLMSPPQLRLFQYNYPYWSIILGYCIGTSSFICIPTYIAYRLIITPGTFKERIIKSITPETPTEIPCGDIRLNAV
T4 sequence (P28223 whole entry): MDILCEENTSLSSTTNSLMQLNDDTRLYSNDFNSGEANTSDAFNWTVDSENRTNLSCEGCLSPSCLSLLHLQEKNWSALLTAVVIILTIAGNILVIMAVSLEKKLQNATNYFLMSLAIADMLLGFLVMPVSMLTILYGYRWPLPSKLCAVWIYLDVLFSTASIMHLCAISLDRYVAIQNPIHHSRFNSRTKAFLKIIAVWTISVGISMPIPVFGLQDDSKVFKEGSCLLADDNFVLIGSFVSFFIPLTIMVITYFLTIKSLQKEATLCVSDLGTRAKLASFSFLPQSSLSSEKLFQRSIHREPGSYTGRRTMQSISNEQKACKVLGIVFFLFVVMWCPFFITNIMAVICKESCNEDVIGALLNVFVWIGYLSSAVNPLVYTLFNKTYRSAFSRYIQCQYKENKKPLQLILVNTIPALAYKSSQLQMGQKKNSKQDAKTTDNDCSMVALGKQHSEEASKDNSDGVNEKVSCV
T3 sequence (Q01959 whole entry): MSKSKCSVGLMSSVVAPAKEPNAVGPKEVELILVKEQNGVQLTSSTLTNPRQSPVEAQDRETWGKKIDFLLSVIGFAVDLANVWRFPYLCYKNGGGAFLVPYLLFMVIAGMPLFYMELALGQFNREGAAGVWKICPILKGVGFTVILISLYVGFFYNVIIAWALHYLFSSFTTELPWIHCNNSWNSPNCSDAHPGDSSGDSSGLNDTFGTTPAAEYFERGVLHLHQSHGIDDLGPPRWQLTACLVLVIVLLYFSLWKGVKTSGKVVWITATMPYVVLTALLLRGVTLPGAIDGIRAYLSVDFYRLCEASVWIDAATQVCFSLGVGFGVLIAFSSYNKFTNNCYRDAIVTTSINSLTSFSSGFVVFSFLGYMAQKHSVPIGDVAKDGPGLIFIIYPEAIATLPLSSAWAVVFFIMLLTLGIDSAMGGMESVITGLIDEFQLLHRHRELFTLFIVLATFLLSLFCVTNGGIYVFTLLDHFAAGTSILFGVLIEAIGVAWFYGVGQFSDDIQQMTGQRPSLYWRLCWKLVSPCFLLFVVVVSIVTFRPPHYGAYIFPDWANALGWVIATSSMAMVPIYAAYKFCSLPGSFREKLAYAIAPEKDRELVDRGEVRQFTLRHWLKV

Question: For `CCc1cc(OC)c(CCN)cc1OC` [2C-E, 2,5-dimethoxy-4-ethylphenethylamine], which Ki [1] is on record?
Answer: > 7.6 µM

Question: What about the “Rate of responding at dose of maximum DAR” value (“Rate of responding” for short) [2] of the same compound?
Answer: 0.413±0.061 resp/s

Question: What about the “Maximum %DAR (drug-appropriate responding)” value (“Maximum %DAR” for short) ([2]; i.p., at dose of maximum DAR) of the same compound?
Answer: 97±3 %

Question: And the Ki [3]?
Answer: > 10 µM

Question: And the Ki [4]?
Answer: > 10 µM

Question: What about the “[3H]Serotonin release % PCA maximal effect” value [5] of the same compound?
Answer: ND Minimal

Question: And the EC50 [6]?
Answer: 0.084 ± 0.016 µM

Question: What about the Emax [6] of the same compound?
Answer: 125 ± 13%

Question: What about the Adverse effect observed ([7]; 10 mg/kg, MDMA-trained rats) of the same compound?
Answer: Loss of muscle tone

Question: What about the Effect on responding ([7]; 25 mg/kg) of the same compound?
Answer: completely suppressed responding

Question: What about the “Rate of responding” value [8] of the same compound?
Answer: 0.466±0.166 resp/s

Question: What about the Ki [9] of the same compound?
Answer: 0.0045 ± 0.00071 µM

Question: What about the “[3H]NE release % METH maximal effect” value [10] of the same compound?
Answer: ND Minimal

Question: And the “Rate of responding” value [11]?
Answer: 0.053±0.036 resp/s

Question: What about the “Maximum %DAR” value ([11]; i.p., at dose of maximum DAR) of the same compound?
Answer: 100±0 %

Question: What about the IC50 [12] of the same compound?
Answer: > 10 µM

Question: And the “[3H]Dopamine release % METH maximal effect” value [13]?
Answer: ND Minimal

Question: What about the IC50 [14] of the same compound?
Answer: > 9.8 µM

Question: What about the “Rate of responding” value [15] of the same compound?
Answer: 0.576±0.087 resp/s

Question: And the “Maximum %DAR” value ([15]; i.p., at dose of maximum DAR)?
Answer: 97±2 %

Question: What about the EC50 [16] of the same compound?
Answer: 0.0071 ± 0.0033 µM

Question: What about the Emax [16] of the same compound?
Answer: 65 ± 11%

Question: What about the Emax [17] of the same compound?
Answer: < 20%

Question: And the IC50 [18]?
Answer: > 7.5 µM

Question: What about the “Rate of responding” value [19] of the same compound?
Answer: 0.228±0.024 resp/s

Question: And the “Duration of depressant effects” value [20]?
Answer: 50 to 70 min

Question: And the “Duration of stimulant effects” value [20]?
Answer: 70 to 100 min

Question: What about the “Onset of depressant effects (within, after injection)” value [20] of the same compound?
Answer: ≤ 10 min

Question: And the “Onset of stimulant effects (within, after injection)” value [20]?
Answer: ≤ 50 min

Question: With `CCSc1cc(OC)c(CCN)cc1OC` [2C-T-2, 2,5-dimethoxy-4-ethylthiophenethylamine] as the compound, how does the Ki [1] read?
Answer: > 10 µM

Question: What about the “Rate of responding” value [2] of the same compound?
Answer: 0.208±0.117 resp/s

Question: And the Ki [21]?
Answer: 1.74 ± 0.66 µM

Question: What about the Ki [3] of the same compound?
Answer: > 9.4 µM

Question: And the Ki [4]?
Answer: > 10 µM

Question: What about the “[3H]Serotonin release % PCA maximal effect” value [5] of the same compound?
Answer: ND Minimal

Question: What about the EC50 [6] of the same compound?
Answer: 0.0079 ± 0.002 µM

Question: And the Emax [6]?
Answer: 87.4 ± 6.5%

Question: And the “Decreased muscle tone (rats affected/tested)” value ([7]; 5 mg/kg, LSD-trained rats)?
Answer: 3/6

Question: What about the Adverse effects observed ([7]; 10 mg/kg) of the same compound?
Answer: hind limb paralysis, salivation and loss of muscle tone

Question: And the “Rats that failed to complete the first fixed ratio” value ([7]; highest dose tested, in each of DMT-, LSD-, MDMA- and METH-trained groups)?
Answer: 5/6

Question: What about the “Rate of responding” value [8] of the same compound?
Answer: 0.170±0.106 resp/s

Question: What about the Ki [9] of the same compound?
Answer: 0.0125 ± 0.0044 µM

Question: And the “[3H]NE release % METH maximal effect” value [10]?
Answer: ND Minimal

Question: What about the “Rate of responding” value [11] of the same compound?
Answer: 0.448±0.130 resp/s

Question: What about the IC50 [12] of the same compound?
Answer: > 10 µM

Question: And the “[3H]Dopamine release % METH maximal effect” value [13]?
Answer: ND Minimal

Question: And the IC50 [14]?
Answer: > 7.2 µM

Question: What about the EC50 [16] of the same compound?
Answer: 0.0023 ± 0.00069 µM

Question: What about the Emax [16] of the same compound?
Answer: 107 ± 6.3%

Question: What about the EC50 [17] of the same compound?
Answer: 3 ± 1.3 µM

Question: What about the Emax [17] of the same compound?
Answer: 76 ± 10%

Question: And the IC50 [18]?
Answer: > 8.6 µM

Question: And the “Rate of responding” value [19]?
Answer: 0.748±0.109 resp/s

Question: What about the “Duration of depressant effects” value [20] of the same compound?
Answer: 30 to 50 min

Question: For `COC(=O)[C@H]1[C@@H](OC(=O)c2ccccc2)C[C@@H]2CC[C@H]1N2C` [Cocaine, reference compound], which “[3H]Serotonin release % PCA maximal effect” value [5] is on record?
Answer: ND Minimal

Question: And the “[3H]Dopamine release % METH maximal effect” value [13]?
Answer: ND Minimal

Question: Which results are given for `CN(C)CCc1c[nH]c2ccccc12` [DMT, N,N,-dimethyltryptamine, reference compound]?
Answer: EC50 [6]: 0.269 ± 0.061 µM; Emax [6]: 39 ± 4.6%; Ki [9]: 0.201 ± 0.048 µM; EC50 [16]: 0.26 ± 0.12 µM; Emax [16]: 105 ± 3%; Emax [17]: 100 ± 5.2%

Question: With `COc1cc(CC(C)N)c(OC)cc1C` (stereo not drawn) [DOM, 2,5-dimethoxy-4-methylamphetamine, reference compound] as the compound, how does the Ki [21] read?
Answer: 11.9 ± 5.6 µM

Question: And the EC50 [6]?
Answer: 0.0312 ± 0.0096 µM

Question: What about the Emax [6] of the same compound?
Answer: 106 ± 11%

Question: And the Ki [9]?
Answer: 0.0081 ± 0.0022 µM

Question: What about the EC50 [17] of the same compound?
Answer: 13.9 ± 1.5 µM

Question: And the Emax [17]?
Answer: 53.8 ± 9.7%

Question: With `CCN(CC)C(=O)[C@@H]1C=C2c3cccc4[nH]cc(c34)C[C@H]2N(C)C1` [LSD, lysergic acid diethylamide, reference compound] as the compound, how does the Ki ([1]; read-out: hNET [125I]RTI-55 binding Ki) read?
Answer: 5.6 ± 0.26 µM

Question: What about the Ki ([3]; read-out: hSERT [125I]RTI-55 binding Ki, HEK-hSERT cells, cells printed in μM) of the same compound?
Answer: > 10 µM

Question: What about the Ki ([4]; read-out: hDAT [125I]RTI-55 binding Ki, HEK-hDAT cells, cells printed in μM) of the same compound?
Answer: > 10 µM

Question: And the “5-HT2A Function IP-1 formation % maximal effect” value [6, 23]?
Answer: 80.3 ± 4.9%

Question: What about the IC50 ([12]; read-out: [3H]Dopamine uptake IC50, HEK-hDAT cells, cells printed in μM) of the same compound?
Answer: > 10 µM

Question: What about the IC50 ([14]; read-out: [3H]NE uptake IC50) of the same compound?
Answer: > 10 µM

Question: What about the “5-HT2A Function [3H]AA release % maximal effect” value [16, 23] of the same compound?
Answer: 87.8 ± 3.4%

Question: And the IC50 ([18]; read-out: [3H]Serotonin uptake IC50, HEK-hSERT cells, cells printed in μM)?
Answer: > 10 µM

Question: For `CNC(C)Cc1ccc2c(c1)OCO2` (stereo not drawn) [MDMA, 3,4-methylenedioxymethamphetamine, reference compound], which Ki [21] is on record?
Answer: 11.9 ± 1.2 µM

Question: What about the EC50 [6] of the same compound?
Answer: 5500 ± 2300 µM

Question: And the Emax [6]?
Answer: 40.2 ± 7.1%

Question: What about the Ki [9] of the same compound?
Answer: 20.9 ± 4.6 µM

Question: And the EC50 [17]?
Answer: 36 ± 16 µM

Question: And the Emax [17]?
Answer: 64.3 ± 9.4%

Question: What about the Emax [22] of the same compound?
Answer: 92.2 ± 8%

Question: How did the “Average maximal stimulation of IP-1 formation” value ([6]; HEK-5-HT2A cells) turn out when `NCCc1c[nH]c2ccc(O)cc12` [Serotonin, reference compound] was run?
Answer: 565 ± 46 nM IP1
